In publication PMC9841532, “Exploring the Effect of Halogenation in a Series of Potent and Selective A2B Adenosine Receptor Antagonists” (Journal of Medicinal Chemistry, 2022):
Read-outs that look alike come from different tables or passages of the source.

Tests used:
[1] = biological target: T1, hA1AR (Homo sapiens, UniProt P30542); assay: Radioligand binding competition, [3H]DPCPX, membranes from CHO-A1 cells; settings: 1 μM, [3H]DPCPX, human CHO cells, n = 2
T1 sequence (P30542 1-326): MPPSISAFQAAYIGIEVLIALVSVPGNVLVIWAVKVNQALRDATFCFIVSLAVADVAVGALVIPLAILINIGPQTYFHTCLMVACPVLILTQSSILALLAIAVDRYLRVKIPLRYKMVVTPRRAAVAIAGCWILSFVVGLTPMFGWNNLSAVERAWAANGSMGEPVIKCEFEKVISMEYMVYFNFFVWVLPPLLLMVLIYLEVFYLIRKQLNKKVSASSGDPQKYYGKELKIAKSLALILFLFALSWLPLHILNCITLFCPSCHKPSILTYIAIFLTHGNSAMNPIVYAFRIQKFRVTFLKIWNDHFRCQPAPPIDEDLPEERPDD
Method: (§1) All ligands reported in Tables 1–5 were obtained and tested as racemic mixtures. The whole set was evaluated in silico with a combination of a Rdkit[37] PAINS filter and Instant JChem from Chemaxon (https://www.chemaxon.com), to rule out the possibility that these ligands can be promiscuous pan-assay interference compounds (PAINS) and to assess their bioavailability, respectively. […] The stereoisomers of selected compounds were obtained by chiral resolution and tested at the four human AR subtypes in their enantiopure forms (Table 6).
(§2) A brief description is given below. […] Non-specific binding was determined in the presence of 10 μM R-PIA. The reaction mixture was incubated at 25 °C for 60 min. […] The reaction mixture was incubated at 25 °C for 30 min. […] The reaction mixture was incubated at 25 °C for 30 min. […] Non-specific binding was determined in the presence of 100 μM R-PIA. […] After the incubation time, membranes were washed and filtered and radioactivity was detected in a MicroBeta TriLux reader (PerkinElmer).

[2] = biological target: T2, hA2AAR (Homo sapiens, UniProt P29274); assay: Radioligand binding competition, [3H]ZM241385, membranes from HeLa-A2A cells; settings: for % at 1 μM hA2A (percentage displacement of specific binding): [3H]ZM241385, human HeLa cells, n = 2
T2 construct: expressed in transfected cells; host or cells: HeLa (HeLa-A2A) cell membranes
T2 sequence (P29274 whole entry): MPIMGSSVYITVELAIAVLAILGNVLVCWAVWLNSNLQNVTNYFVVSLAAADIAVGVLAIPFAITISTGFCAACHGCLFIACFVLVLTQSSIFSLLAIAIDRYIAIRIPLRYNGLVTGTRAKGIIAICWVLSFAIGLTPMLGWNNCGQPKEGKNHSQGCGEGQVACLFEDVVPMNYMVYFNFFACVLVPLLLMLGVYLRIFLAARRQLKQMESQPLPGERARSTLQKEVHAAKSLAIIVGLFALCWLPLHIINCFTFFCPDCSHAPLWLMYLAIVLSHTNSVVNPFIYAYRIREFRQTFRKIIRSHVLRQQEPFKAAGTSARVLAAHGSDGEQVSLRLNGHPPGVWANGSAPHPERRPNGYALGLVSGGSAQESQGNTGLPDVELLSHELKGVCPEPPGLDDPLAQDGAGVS
Method: as §1, §2

[3] = biological target: T3, hA2BAR (Homo sapiens, UniProt P29275); assay: Radioligand binding competition, [3H]DPCPX, membranes from HEK-293-A2B cells; design: Exp. dG: unit not given here; settings: for % at 1 μM hA2B (percentage displacement of specific binding): [3H]DPCPX, human HEK-293 cells, n = 2; for Exp. dG: experimental binding free energy, Supplementary Table S3, unit not given (errors in kcal/mol)
T3 construct: host or cells: HEK-293 (HEK-293-A2B) cell membranes
T3 sequence (P29275 1-332): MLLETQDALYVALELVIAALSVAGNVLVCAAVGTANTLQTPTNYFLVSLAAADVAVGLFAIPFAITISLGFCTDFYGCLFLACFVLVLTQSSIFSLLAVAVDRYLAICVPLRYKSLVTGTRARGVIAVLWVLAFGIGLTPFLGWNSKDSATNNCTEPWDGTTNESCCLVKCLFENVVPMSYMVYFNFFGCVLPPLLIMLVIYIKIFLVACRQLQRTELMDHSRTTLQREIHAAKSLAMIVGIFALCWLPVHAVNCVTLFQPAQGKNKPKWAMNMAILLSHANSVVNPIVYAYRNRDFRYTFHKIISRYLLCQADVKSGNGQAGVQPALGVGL
Method: as §1, §2

[4] = biological target: T4, hA3AR (Homo sapiens, UniProt P0DMS8); assay: Radioligand binding competition, [3H]NECA, membranes from HeLa-A3 cells; settings: 1 μM, [3H]NECA, human HeLa cells, n = 2
T4 construct: expressed in transfected cells; host or cells: HeLa (HeLa-A3) cell membranes
T4 sequence (P0DMS8 1-318): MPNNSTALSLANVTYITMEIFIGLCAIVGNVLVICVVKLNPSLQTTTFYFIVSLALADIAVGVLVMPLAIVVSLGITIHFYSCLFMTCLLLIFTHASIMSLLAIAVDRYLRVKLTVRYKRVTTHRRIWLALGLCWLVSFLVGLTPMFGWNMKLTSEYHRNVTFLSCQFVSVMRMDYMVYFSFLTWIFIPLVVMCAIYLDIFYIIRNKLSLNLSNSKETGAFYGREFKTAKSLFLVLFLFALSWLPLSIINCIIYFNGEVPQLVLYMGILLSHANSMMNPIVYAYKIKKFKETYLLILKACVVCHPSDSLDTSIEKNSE
Method: as §1, §2

[5] = displacement of specific [3H]DPCPX binding in human HEK-293 cells, n = 3, read-out: Ki hA2B

Row | % at 1 μM hA1 (percentage displacement of specific binding) [1] | % at 1 μM hA2A (percentage displacement of specific binding) [2] | % at 1 μM hA2B (percentage displacement of specific binding) [3] | % at 1 μM hA3 (percentage displacement of specific binding) [4] | Ki [3, 5] | Ki ([3]; read-out: Ki hA2B) | Exp. dG [3] | Ki ([2]; displacement of specific [3H]ZM241385 binding in human HeLa cells, n = 3, read-out: Ki hA2A) | Ki ([3]; supplementary CSV, no unit printed (nM in Tables 2-5), read-out: Ki_hA2B) | Structure (SMILES)
1 | 7% | 9% | 48% | 3% | – | – | – | – | – | CC1=C(C(=O)OC(C)C)C(c2ccsc2)n2c(nc3ccc(Cl)cc32)N1 (centres unmarked) [15p]
2 | 22% | 21% | 48% | 5% | – | – | – | – | – | CCOC(=O)C1=C(C)Nc2nc3ccc(Br)cc3n2C1c1ccco1 (centres unmarked) [15q]
3 | 46% | 1% | – | 6% | 273 ± 4 nM | ~45 nM | – | – | – | CC1=C(C(=O)OC(C)C)C(c2ccco2)n2c(nc3ccc(Br)cc32)N1 (centres unmarked) [15r]
4 | 10% | 1% | – | 19% | 318 ± 6 nM | ~45 nM | – | – | – | CCOC(=O)C1=C(C)Nc2nc3ccc(Br)cc3n2C1c1ccoc1 (centres unmarked) [15s]
5 | 11% | 3% | 26% | 12% | – | – | – | – | – | CC1=C(C(=O)OC(C)C)C(c2ccoc2)n2c(nc3ccc(Br)cc32)N1 (centres unmarked) [15t]
6 | 1% | 5% | 1% | 4% | – | – | – | – | – | CCOC(=O)C1=C(C)Nc2nc3ccc(Br)cc3n2C1c1cccs1 (centres unmarked) [15u]
7 | 1% | 6% | 11% | 8% | – | – | – | – | – | CC1=C(C(=O)OC(C)C)C(c2cccs2)n2c(nc3ccc(Br)cc32)N1 (centres unmarked) [15v]
8 | 4% | 3% | 43% | 3% | – | – | – | – | – | CCOC(=O)C1=C(C)Nc2nc3ccc(Br)cc3n2C1c1ccsc1 (centres unmarked) [15w]
9 | 1% | 1% | 10% | 1% | – | – | – | – | – | CC1=C(C(=O)OC(C)C)C(c2ccsc2)n2c(nc3ccc(Br)cc32)N1 (centres unmarked) [15x]
10 | 10% | 29% | – | 2% | 6.6 ± 1 nM | < 10 nM | -11.15 | – | – | CCOC(=O)C1=C(C)Nc2nc3cc(F)ccc3n2C1c1ccco1 (centres unmarked) [16a]
11 | 29% | 21% | – | 2% | 13.7 ± 0.9 nM | – | -10.72 | – | – | CCOC(=O)C1=C(C)Nc2nc3cc(F)ccc3n2C1c1ccoc1 (centres unmarked) [16c]
12 | 14% | 31% | – | 4% | 8.6 ± 0.5 nM | < 10 nM | -11 | – | – | CC1=C(C(=O)OC(C)C)C(c2ccoc2)n2c(nc3cc(F)ccc32)N1 (centres unmarked) [16d]
13 | 1% | 3% | – | 3% | 724 ± 8 nM | – | – | – | – | CCOC(=O)C1=C(C)Nc2nc3cc(F)ccc3n2C1c1cccs1 (centres unmarked) [16e]
14 | 2% | 1% | – | 7% | 668 ± 6 nM | – | -8.419 | – | – | CC1=C(C(=O)OC(C)C)C(c2cccs2)n2c(nc3cc(F)ccc32)N1 (centres unmarked) [16f]
15 | 1% | 1% | – | 3% | 187 ± 2 nM | – | -9.172 | – | – | CCOC(=O)C1=C(C)Nc2nc3cc(F)ccc3n2C1c1ccsc1 (centres unmarked) [16g]
16 | 2% | 1% | – | 5% | 75.5 ± 3.2 nM | – | -9.71 | – | – | CC1=C(C(=O)OC(C)C)C(c2ccsc2)n2c(nc3cc(F)ccc32)N1 (centres unmarked) [16h]
17 | 23% | 10% | – | 4% | 8.42 ± 1.4 nM | < 10 nM | -11.01 | – | – | CCOC(=O)C1=C(C)Nc2nc3cc(Cl)ccc3n2C1c1ccco1 (centres unmarked) [16i]
18 | 31% | 43% | – | 4% | 7.21 ± 0.4 nM | < 10 nM | -11.1 | – | – | CCOC(=O)C1=C(C)Nc2nc3cc(Cl)ccc3n2C1c1ccoc1 (centres unmarked) [16k]
19 | 3% | 2% | 41% | 1% | – | – | – | – | – | CCOC(=O)C1=C(C)Nc2nc3cc(Cl)ccc3n2C1c1cccs1 (centres unmarked) [16m]
20 | 2% | 2% | – | 1% | 837 ± 11 nM | – | -8.286 | – | – | CC1=C(C(=O)OC(C)C)C(c2cccs2)n2c(nc3cc(Cl)ccc32)N1 (centres unmarked) [16n]
21 | 2% | 7% | – | 8% | 911 ± 14 nM | – | -8.235 | – | – | CCOC(=O)C1=C(C)Nc2nc3cc(Cl)ccc3n2C1c1ccsc1 (centres unmarked) [16o]
22 | 7% | 7% | – | 4% | 165 ± 9 nM | – | – | – | – | CC1=C(C(=O)OC(C)C)C(c2ccsc2)n2c(nc3cc(Cl)ccc32)N1 (centres unmarked) [16p]
23 | 18% | 29% | – | 33% | 26.9 ± 0.8 nM | – | – | – | – | CCOC(=O)C1=C(C)Nc2nc3cc(Br)ccc3n2C1c1ccco1 (centres unmarked) [16q]
24 | 2% | – | – | 2% | 8.2 ± 1.1 nM | < 10 nM | – | 509 ± 6 nM | – | CC1=C(C(=O)OC(C)C)C(c2ccoc2)n2c(nc3cc(Br)ccc32)N1 (centres unmarked) [16t]
25 | 6% | 3% | 55% | 6% | – | – | – | – | – | CCOC(=O)C1=C(C)Nc2nc3cc(Br)ccc3n2C1c1cccs1 (centres unmarked) [16u]
26 | 1% | 1% | – | 1% | 115 ± 3 nM | – | – | – | 115 nM | CC1=C(C(=O)OC(C)C)C(c2cccs2)n2c(nc3cc(Br)ccc32)N1 (centres unmarked) [16v]
